The test deals with T1, human adenosine A2b receptor (Homo sapiens, UniProt P29275).
T1 construct: expressed in transfected cells; host or cells: CHO-K1 (Chinese Hamster Ovary) with CRE-luciferase reporter
T1 sequence (P29275 1-332): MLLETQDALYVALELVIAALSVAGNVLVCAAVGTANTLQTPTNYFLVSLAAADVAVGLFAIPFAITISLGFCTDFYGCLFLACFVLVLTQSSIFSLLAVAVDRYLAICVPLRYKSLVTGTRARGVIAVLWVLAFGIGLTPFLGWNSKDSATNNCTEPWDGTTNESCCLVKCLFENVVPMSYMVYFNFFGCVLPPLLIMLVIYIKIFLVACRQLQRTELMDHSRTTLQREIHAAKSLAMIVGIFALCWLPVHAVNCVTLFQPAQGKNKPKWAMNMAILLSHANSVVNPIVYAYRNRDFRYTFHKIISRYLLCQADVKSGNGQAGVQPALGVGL
The test is described as follows: Cellular reporter gene (CRE-luciferase) A2b receptor antagonist assay in recombinant CHO-K1 cells stimulated with NECA. The format is cell-based. The conditions noted are these: recombinant CHO-K1 cell line, co-incubation with EC50 concentration of NECA, 3 hours, in some cases means, rounded to two significant digits. The essentials: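 CHO-K1 cells expressing human A2b receptor with a CRE-driven firefly luciferase reporter, co-incubated with test compound and NECA at its same-day EC50 concentration. Luminescence read 3 hours after NECA addition.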
In general terms: Reporter assays use an easily measured gene product as a stand-in for the process of interest.

In patent publication US9604996B2 (Bayer Pharma Aktiengesellschaft, priority 2013, dated 2017) one finds IC50 data, which are given here for 20 compounds.

The structures appear in SMILES notation.

A word on the IC50: it is the concentration that gives 50% inhibition. Turning to `CCn1c(=O)c2c(C(F)(F)F)c(C(=O)N3CCC(C)(O)CC3)sc2n(CCC(F)(F)F)c1=O` [Example 82, 3-Ethyl-6-[(4-hydroxy-4-methylpiperidin-1-yl)carbonyl]-5-(trifluoromethyl)-1-(3,3,3-trifluoropropyl)thieno[2,3-d]pyrimidine-2,4(1H,3H)-dione], the half-inhibitory concentration (IC50) worked out at 23 nM.
As to `COC(Cn1c(=O)c2c(C)c(C(=O)N3CCC(O)(CO)CC3)sc2n(CCC(F)(F)F)c1=O)C(F)(F)F` (single isomer, unassigned) [Example 114, 6-{[4-Hydroxy-4-(hydroxymethyl)piperidin-1-yl]carbonyl}-5-methyl-3-(3,3,3-trifluoro-2-methoxypropyl)-1-(3,3,3-trifluoropropyl)thieno[2,3-d]pyrimidine-2,4(1H,3H)-dione], the IC50 stood at 110 nM.
In the case of `CCc1c(C(=O)N2CCC(O)CC2)sc2c1c(=O)n(CC)c(=O)n2CCC(F)(F)F` [Example 87, 3,5-Diethyl-6-[(4-hydroxypiperidin-1-yl)carbonyl]-1-(3,3,3-trifluoropropyl)thieno[2,3-d]pyrimidine-2,4(1H,3H)-dione], the IC50 is 26 nM.
The result for `Cc1c(C(=O)N2CCNC(=O)C2)sc2c1c(=O)n(CCc1ccccc1)c(=O)n2CCOC(F)(F)F` [Example 129, 5-Methyl-6-[(3-oxopiperazin-1-yl)carbonyl]-3-(2-phenylethyl)-1-[2-(trifluoromethoxy)ethyl]thieno[2,3-d]pyrimidine-2,4(1H,3H)-dione] reads 12 nM; that for `CCn1c(=O)c2c(C)c(C(=O)N3CCC(O)CC3)sc2n(CCOC(F)(F)F)c1=O` [Example 56, 3-Ethyl-6-[(4-hydroxypiperidin-1-yl)carbonyl]-5-methyl-1-[2-(trifluoromethoxy)ethyl]thieno[2,3-d]pyrimidine-2,4(1H,3H)-dione], 19 nM; that for `CCn1c(=O)c2c(C)c(C(=O)N3CCC(O)(CC)CC3)sc2n(CCOC(F)(F)F)c1=O` [Example 112, 3-Ethyl-6-[(4-ethyl-4-hydroxypiperidin-1-yl)carbonyl]-5-methyl-1-[2-(trifluoromethoxy)ethyl]thieno[2,3-d]pyrimidine-2,4(1H,3H)-dione], 7.9 nM.
Consider `CCn1c(=O)c2c(C)c(C(=O)N3CCNC(=O)C3C)sc2n(CCC(F)(F)F)c1=O` (racemic) [Example 39, 3-Ethyl-5-methyl-6-[(2-methyl-3-oxopiperazin-1-yl)carbonyl]-1-(3,3,3-trifluoropropyl)thieno[2,3-d]pyrimidine-2,4(1H,3H)-dione (racemate)], for which the 50% inhibitory concentration (IC50) was 220 nM.
Regarding `Cc1c(C(=O)N2CCNC(=O)C2)sc2c1c(=O)n(CCc1ccccc1F)c(=O)n2CCC=C(F)F` [Example 30, 1-(4,4-Difluorobut-3-en-1-yl)-3-[2-(2-fluorophenyl)ethyl]-5-methyl-6-[(3-oxopiperazin-1-yl)carbonyl]thieno[2,3-d]pyrimidine-2,4(1H,3H)-dione], the IC50 came out at 53 nM.
Consider `Cc1c(C(=O)N2CCNC(=O)C2)sc2c1c(=O)n(CCc1ccccc1)c(=O)n2CCC=C(F)F` [Example 27, 1-(4,4-Difluorobut-3-en-1-yl)-5-methyl-6-[(3-oxopiperazin-1-yl)carbonyl]-3-(2-phenylethyl)thieno[2,3-d]pyrimidine-2,4(1H,3H)-dione], for which the 50% inhibitory concentration (IC50) amounted to 41 nM.
For `Cc1c(C(=O)N2CCC(O)(CO)CC2)sc2c1c(=O)n(CC(F)(F)c1ccccc1)c(=O)n2CCC(F)(F)F` [Example 70, 3-(2,2-Difluoro-2-phenylethyl)-6-{[4-hydroxy-4-(hydroxymethyl)piperidin-1-yl]carbonyl}-5-methyl-1-(3,3,3-trifluoropropyl)thieno [2,3-d]pyrimidine-2,4(1H,3H)-dione], the concentration for half-maximal inhibition (IC50) was determined as 28 nM.
On to `COC(Cn1c(=O)c2c(C)c(C(=O)N3CCC(O)CC3)sc2n(CCC(F)(F)F)c1=O)C(F)(F)F` (racemic) [Example 66, 6-[(4-Hydroxypiperidin-1-yl)carbonyl]-5-methyl-3-(3,3,3-trifluoro-2-methoxypropyl)-1-(3,3,3-trifluoropropyl)thieno[2,3-d]pyrimidine-2,4(1H,3H)-dione (racemate)], for which the IC50 came out at 280 nM.
`CCC1C(=O)NCCN1C(=O)c1sc2c(c1C)c(=O)n(CC)c(=O)n2CCC(F)(F)F` (racemic) [Example 40, 3-Ethyl-6-[(2-ethyl-3-oxopiperazin-1-yl)carbonyl]-5-methyl-1-(3,3,3-trifluoropropyl)thieno[2,3-d]pyrimidine-2,4(1H,3H)-dione (racemate)]: the IC50 worked out at 230 nM.
As for `Cc1c(C(=O)N2CCC(O)(C(F)(F)F)CC2)sc2c1c(=O)n(CCc1ccccc1)c(=O)n2CCC(F)(F)F` [Example 69, 6-{[4-Hydroxy-4-(trifluoromethyl)piperidin-1-yl]carbonyl}-5-methyl-3-(2-phenylethyl)-1-(3,3,3-trifluoropropyl)thieno[2,3-d]pyrimidine-2,4(1H,3H)-dione], the figure is 60 nM; as for `CCCn1c(=O)c2c(C)c(C(=O)N3CCC(C)(O)CC3)sc2n(CCC(F)(F)F)c1=O` [Example 76, 6-[(4-Hydroxy-4-methylpiperidin-1-yl)carbonyl]-5-methyl-3-propyl-1-(3,3,3-trifluoropropyl)thieno[2,3-d]pyrimidine-2,4(1H,3H)-dione], 27 nM.
As for `CCn1c(=O)c2c(C)c(C(=O)N3CCC(O)CC3)sc2n(CCC(F)=C(F)F)c1=O` [Example 136, 3-Ethyl-6-[(4-hydroxypiperidin-1-yl)carbonyl]-5-methyl-1-(3,4,4-trifluorobut-3-en-1-yl)thieno[2,3-d]pyrimidine-2,4(1H,3H)-dione], the half-inhibitory concentration (IC50) worked out at 310 nM.
For the compound `CCn1c(=O)c2c(C)c(C(=O)N3CCC(O)CC3)sc2n(CCCC(F)(F)F)c1=O` [Example 135, 3-Ethyl-6-[(4-hydroxypiperidin-1-yl)carbonyl]-5-methyl-1-(4,4,4-trifluorobutyl)thieno[2,3-d]pyrimidine-2,4(1H,3H)-dione], the half-maximal inhibitory concentration (IC50) was 94 nM.
`Cc1c(C(=O)N2CCC(O)(CO)CC2)sc2c1c(=O)n(CCc1ccccc1)c(=O)n2CCOC(F)(F)F` [Example 110, 6-{[4-Hydroxy-4-(hydroxymethyl)piperidin-1-yl]carbonyl}-5-methyl-3-(2-phenylethyl)-1-[2-(trifluoromethoxy)ethyl]thieno[2,3-d]pyrimidine-2,4(1H,3H)-dione]: the concentration for half-maximal inhibition (IC50) was 14 nM.
For `Cc1c(C(=O)N2CCC(O)CC2)sc2c1c(=O)n(CC(F)c1ccccc1)c(=O)n2CCC(F)(F)F` (single isomer, unassigned) [Example 102, 3-(2-Fluoro-2-phenylethyl)-6-[(4-hydroxypiperidin-1-yl)carbonyl]-5-methyl-1-(3,3,3-trifluoropropyl)thieno [2,3-d]pyrimidine-2,4(1H,3H)-dione], the IC50 was determined as 3.6 nM.
Regarding `Cc1c(C(=O)N2CCC(O)CC2)sc2c1c(=O)n(CC(C)(O)c1ccccc1)c(=O)n2CCC(F)(F)F` (single isomer, unassigned) [Example 132, 3-(2-Hydroxy-2-phenylpropyl)-6-[(4-hydroxypiperidin-1-yl)carbonyl]-5-methyl-1-(3,3,3-trifluoropropyl)thieno[2,3-d]pyrimidine-2,4(1H,3H)-dione], the half-maximal inhibitory concentration (IC50) was 24 nM.
As for `CCn1c(=O)c2c(C)c(C(=O)N3CCC(O)CC3)sc2n(CC2CC2(F)F)c1=O` (racemic) [Example 59, 1-[(2,2-Difluorocyclopropyl)methyl]-3-ethyl-6-[(4-hydroxypiperidin-1-yl)carbonyl]-5-methylthieno[2,3-d]pyrimidine-2,4(1H,3H)-dione (racemate)], the IC50 came to 370 nM.
